Results on one molecule are retold here after patent publication US20260284168A1, “RNA FOR PREVENTING OR TREATING TUBERCULOSIS” (priority 2023, published 2026).

The test system of this assay is Caspase-1. It counts as cell-based. As to conditions: 50 μM.

For the molecule `CCO[C@@H]1OC(=O)C[C@@H]1NC(=O)[C@@H]1CCCN1C(=O)[C@@H](NC(=O)c1ccc(N)c(Cl)c1)C(C)(C)C` [VX765], the “effect of Caspase-1 inhibitor on IL-1β release” value was “inhibited IL-1ß release”.
